From patent US10196369B2, “Spirocyclic EBI2 modulators” (Sanford Burnham Prebys Medical Discovery Institute, priority 2013, dated 2019)

target: EBI2 (Homo sapiens, UniProt P32249); assay: Cell-based luminescent assay of EBI2 modulation (7a,25-OHC stimulated); settings: 7a,25-OHC final assay concentration 80 nM, 60 minute incubation
Method: To assess EBI2 modulation, the compounds described herein were assayed in the following cell-based luminescent assay:
1) Plated 600 cells/well in 4 μL of assay media into columns 1-48 of a 1536-well assay plate, using a liquid dispenser.
2) Centrifuged plates at 1000 rpm for 1 minute and covered with lids.
3) Incubated overnight at 37° C., 100% relative humidity, 5% CO2.
1) Centrifuged compound plates containing compounds described herein at 500 rpm for 1 minute.
2) Added compounds into assay plate col 5-48 to final concentration 4-5 uM. Added matching amount of DMSO to positive and negative control wells in columns 1-4.
3) Dispensed 2 uL/well of assay media to columns 1-2 for the positive control wells.
4) Added 2 uL/well of 400 nM 7a,25-OHC (final assay concentration=80 nM) in assay media to columns 3-48 for the negative control and test compound wells.
5) Centrifuged plates at 1000 rpm for 1 minute and re-lid plates.
6) Incubated plates at 37° C., 100% relative humidity, 5% CO2 for 60 minutes.
7) Following 60 minute incubation, delivered 2.5 uL of Detection Reagent solution to each assay plate (Columns 1-48) using a liquid handler.
8) Centrifuged plates at 2000 rpm for 2 minutes and re-lid plates.
9) Incubated plates for 60 minutes at 25 degrees in the dark.
10) Read plates using the Viewlux, Envision or other suitable plate reader using a luminescence detection.
The experimental values were normalized by the difference between values from neutral and stimulator control wells in each plate. Then normalized data was corrected to remove systematic plate patterns due to artifacts such as dispensing tip issues etc.

Sequence of EBI2 (P32249 whole entry): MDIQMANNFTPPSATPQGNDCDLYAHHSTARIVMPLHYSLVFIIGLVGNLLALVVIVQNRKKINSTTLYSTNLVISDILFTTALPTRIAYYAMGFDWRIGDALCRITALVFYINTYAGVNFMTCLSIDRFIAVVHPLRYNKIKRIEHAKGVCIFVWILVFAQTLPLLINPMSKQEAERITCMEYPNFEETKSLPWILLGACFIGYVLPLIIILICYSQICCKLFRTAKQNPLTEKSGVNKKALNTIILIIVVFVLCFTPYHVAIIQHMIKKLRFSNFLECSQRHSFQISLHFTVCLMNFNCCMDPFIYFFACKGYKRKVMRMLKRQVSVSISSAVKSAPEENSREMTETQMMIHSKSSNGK

SMILES | IC50
O=C(C#Cc1ccc(F)cc1)N1CCC2(CC1)CN(C(=O)c1ccc(Cl)cc1)C2 [Compound C87, 1-{2-[(4-chlorophenyl)carbonyl]-2,7-diazaspiro[3.5]non-7-yl}-3-(4-fluorophenyl)prop-2-yn-1-one] | < 100 nM
COc1ccc(C(=O)N2CCC3(CC2)CN(C(=O)C#Cc2ccc(F)cc2)C3)cc1 [Compound C92, 3-(4-fluorophenyl)-1-{7-[(4-methoxyphenyl)carbonyl]-2,7-diazaspiro[3.5]non-2-yl}prop-2-yn-1-one] | 100 to 500 nM
O=C(C#Cc1ccc(F)cc1)N1CCC2(CC1)CN(C(=O)c1ccc(C(F)(F)F)cc1)C2 [Compound C88, 3-(4-fluorophenyl)-1-(2-{[4-(trifluoromethyl)phenyl]carbonyl}-2,7-diazaspiro[3.5]non-7-yl)prop-2-yn-1-one] | < 100 nM
O=C(/C=C/c1ccc(Cl)c(Cl)c1)N1CC2(CCN(C(=O)c3ccc(-c4nnn[nH]4)cc3)CC2)C1 [Compound C31, (2E)-3-(3,4-dichlorophenyl)-1-{7-[(4-(1H-1,2,3,4-tetraazol-5-yl)phenyl)carbonyl]-2,7-diazaspiro[3.5]non-2-yl}prop-2-en-1-one] | 500 to 5000 nM
O=C(c1cc2ccc(Br)cc2[nH]1)N1CC2(CCN(Cc3ccc(C(F)(F)F)cc3)CC2)C1 [Compound C63, 6-bromoindol-2-yl 7-{[4-(trifluoromethyl)phenyl]methyl}-2,7-diazaspiro[3.5]non-2-yl ketone] | 500 to 5000 nM
O=C(C#Cc1ccc(F)cc1)N1CCC2(CC1)CN(Cc1ccc(F)cc1C(F)(F)F)C2 [Compound C90, 3-(4-fluorophenyl)-1-(2-{[4-fluoro-2-(trifluoromethyl)phenyl]methyl}-2,7-diazaspiro[3.5]non-7-yl)prop-2-yn-1-one] | 100 to 500 nM
O=C(/C=C/c1ccc(Br)cc1)N1CCC2(CC1)CN(C(=O)c1ccc(C(F)(F)F)cc1)C2 [Compound C54, (2E)-3-(4-bromophenyl)-1-(2-{[4-(trifluoromethyl)phenyl]carbonyl}-2,7-diazaspiro[3.5]non-7-yl)prop-2-en-1-one] | < 100 nM
Nc1ccc(C(=O)N2CCC3(CC2)CN(C(=O)/C=C/c2ccc(Br)cc2)C3)cc1 [Compound C51, (2E)-1-{7-[(4-aminophenyl)carbonyl]-2,7-diazaspiro[3.5]non-2-yl}-3-(4-bromophenyl)prop-2-en-1-one] | < 100 nM
O=C(/C=C/c1ccc(Br)cc1)N1CC2(CCN(Cc3cc(C(F)(F)F)cc(C(F)(F)F)c3)CC2)C1 [Compound C24, (2E)-1-(7-{[3,5-bis(trifluoromethyl)phenyl]methyl}-2,7-diazaspiro[3.5]non-2-yl)-3-(4-bromophenyl)prop-2-en-1-one] | 100 to 500 nM
O=C(C#Cc1ccc(Cl)cc1)N1CCC2(CC1)CN(Cc1ccc(C(F)(F)F)cc1)C2 [Compound C78, 3-(4-chlorophenyl)-1-(2-{[4-(trifluoromethyl)phenyl]methyl}-2,7-diazaspiro[3.5]non-7-yl)prop-2-yn-1-one] | < 100 nM
O=C(C#Cc1ccc(Br)cc1)N1CCC2(CC1)CN(Cc1ccc(F)cc1)C2 [Compound C68, 3-(4-bromophenyl)-1-{2-[(4-fluorophenyl)methyl]-2,7-diazaspiro[3.5]non-7-yl}prop-2-yn-1-one] | < 100 nM
O=C(C#Cc1ccc(Cl)cc1)N1CCC2(CC1)CN(C(=O)c1ccc(C(F)(F)F)cc1)C2 [Compound C79, 3-(4-chlorophenyl)-1-(2-{[4-(trifluoromethyl)phenyl]carbonyl}-2,7-diazaspiro[3.5]non-7-yl)prop-2-yn-1-one] | < 100 nM
O=C(/C=C/c1ccc(Br)cc1)N1CC2(CCN(C(=O)c3ccc(F)cc3)CC2)C1 [Compound C20, (2E)-3-(4-bromophenyl)-1-{7-[(4-fluorophenyl)carbonyl]-2,7-diazaspiro[3.5]non-2-yl}prop-2-en-1-one] | < 100 nM
O=C(C#Cc1ccc(Cl)cc1)N1CC2(CCN(C(=O)c3ccc(Cl)cc3)CC2)C1 [Compound C84, 3-(4-chlorophenyl)-1-{7-[(4-chlorophenyl)carbonyl]-2,7-diazaspiro[3.5]non-2-yl}prop-2-yn-1-one] | < 100 nM
O=C(c1ccc(C(F)(F)F)cc1)N1CCC2(CC1)CN(C(=O)c1cc3cc(Cl)ccc3[nH]1)C2 [Compound C39, 5-chloroindol-2-yl 7-{[4-(trifluoromethyl)phenyl]carbonyl}-2,7-diazaspiro[3.5]non-2-yl ketone] | < 100 nM
O=C(C#Cc1ccc(F)cc1)N1CC2(CCN(C(=O)c3ccc(Br)cc3)CC2)C1 [Compound C95, 1-{7-[(4-bromophenyl)carbonyl]-2,7-diazaspiro[3.5]non-2-yl}-3-(4-fluorophenyl)prop-2-yn-1-one] | < 100 nM

SMILES | IC50
O=C(C#Cc1ccc(Br)cc1)N1CC2(CCN(C(=O)c3ccc(Cl)cc3)CC2)C1 [Compound C64, 3-(4-bromophenyl)-1-{7-[(4-chlorophenyl)carbonyl]-2,7-diazaspiro[3.5]non-2-yl}prop-2-yn-1-one] | 100 to 500 nM
O=C(/C=C/c1ccc(Cl)c(Cl)c1)N1CC2(CCN(Cc3ccc(F)cc3)CC2)C1 [Compound C32, (2E)-3-(3,4-dichlorophenyl)-1-{7-[(4-fluorophenyl)methyl]-2,7-diazaspiro[3.5]non-2-yl}prop-2-en-1-one] | 100 to 500 nM
O=C(c1cc2cc(Cl)ccc2[nH]1)N1CCC2(CC1)CN(Cc1cccc(F)c1)C2 [Compound C4, 5-chloroindol-2-yl 2-[(3-fluorophenyl)methyl]-2,7-diazaspiro[3.5]non-7-yl ketone] | < 100 nM
O=C(C#Cc1ccc(Br)cc1)N1CC2(CCN(C(=O)c3ccc(C(F)(F)F)cc3)CC2)C1 [Compound C65, 3-(4-bromophenyl)-1-(7-{[4-(trifluoromethyl)phenyl]carbonyl}-2,7-diazaspiro[3.5]non-2-yl)prop-2-yn-1-one] | 100 to 500 nM
O=C(c1ccc(C(F)(F)F)c(F)c1)N1CCC2(CC1)CN(C(=O)c1cc3cc(Cl)ccc3[nH]1)C2 [Compound C18, 5-chloroindol-2-yl 7-{[3-fluoro-4-(trifluoromethyl)phenyl]carbonyl}-2,7-diazaspiro[3.5]non-2-yl ketone] | < 100 nM
Cc1cccc(C(=O)N2CC3(CCN(C(=O)/C=C/c4ccc(Br)cc4)CC3)C2)c1 [Compound C12, (2E)-3-(4-bromophenyl)-1-{2-[(3-methylphenyl)carbonyl]-2,7-diazaspiro[3.5]non-7-yl}prop-2-en-1-one] | < 100 nM
O=C(/C=C/c1ccc(Br)cc1)N1CC2(CCN(Cc3ccc(Cl)cc3)CC2)C1 [Compound C26, (2E)-3-(4-bromophenyl)-1-{7-[(4-chlorophenyl)methyl]-2,7-diazaspiro[3.5]non-2-yl}prop-2-en-1-one] | 100 to 500 nM
O=C(c1ccc(Br)cc1)N1CCC2(CC1)CN(C(=O)c1cc3cc(Br)ccc3[nH]1)C2 [Compound C46, 5-bromoindol-2-yl 7-[(4-bromophenyl)carbonyl]-2,7-diazaspiro[3.5]non-2-yl ketone] | < 100 nM
O=C(c1cc2cc(Br)ccc2[nH]1)N1CC2(CCN(Cc3ccc(C(F)(F)F)cc3)CC2)C1 [Compound C50, 5-bromoindol-2-yl 7-{[4-(trifluoromethyl)phenyl]methyl}-2,7-diazaspiro[3.5]non-2-yl ketone] | 500 to 5000 nM
O=C(c1cc2cc(Cl)ccc2[nH]1)N1CCC2(CC1)CN(Cc1ccc(F)cc1)C2 [Compound C17, 5-chloroindol-2-yl 2-[(4-fluorophenyl)methyl]-2,7-diazaspiro[3.5]non-7-yl ketone] | < 100 nM
O=C(/C=C/c1ccc(Br)cc1)N1CC2(CCN(C(=O)c3ccc(-c4nnn[nH]4)cc3)CC2)C1 [Compound C23, (2E)-3-(4-bromophenyl)-1-{7-[(4-(1H-1,2,3,4-tetraazol-5-yl)phenyl)carbonyl]-2,7-diazaspiro[3.5]non-2-yl}prop-2-en-1-one] | 100 to 500 nM
COc1ccc(C(=O)N2CC3(CCN(C(=O)C#Cc4ccc(F)cc4)CC3)C2)cc1 [Compound C89, 3-(4-fluorophenyl)-1-{2-[(4-methoxyphenyl)carbonyl]-2,7-diazaspiro[3.5]non-7-yl}prop-2-yn-1-one] | 100 to 500 nM
O=C(/C=C/c1ccc(Br)cc1)N1CC2(CCN(C(=O)c3ccc(F)c(C(F)(F)F)c3)CC2)C1 [Compound C22, (2E)-3-(4-bromophenyl)-1-(7-{[4-fluoro-3-(trifluoromethyl)phenyl]carbonyl}-2,7-diazaspiro[3.5]non-2-yl)prop-2-en-1-one] | < 100 nM
O=C(C#Cc1ccc(F)cc1)N1CCC2(CC1)CN(C(=O)c1ccc(F)cc1)C2 [Compound C86, 3-(4-fluorophenyl)-1-{2-[(4-fluorophenyl)carbonyl]-2,7-diazaspiro[3.5]non-7-yl}prop-2-yn-1-one] | 100 to 500 nM
O=C(/C=C/c1ccc(Br)cc1)N1CC2(CCN(C(=O)c3ccc(C(F)(F)F)cc3)CC2)C1 [Compound C21, (2E)-3-(4-bromophenyl)-1-(7-{[4-(trifluoromethyl)phenyl]carbonyl}-2,7-diazaspiro[3.5]non-2-yl)prop-2-en-1-one] | < 100 nM
O=C(C#Cc1ccc(Br)cc1)N1CCC2(CC1)CN(Cc1ccc(C(F)(F)F)cc1)C2 [Compound C73, 3-(4-bromophenyl)-1-(2-{[4-(trifluoromethyl)phenyl]methyl}-2,7-diazaspiro[3.5]non-7-yl)prop-2-yn-1-one] | < 100 nM
